Experimental data: ChEMBL document CHEMBL5226379, “Hypouricemic Actions of the Pericarp of Mangosteen in Vitro and in Vivo” (J Nat Prod, 2023)
Calls of active or inactive are those of the source. The rule behind the calls is not given here.

Assays:
[1] = tested on: Mus musculus; assay: Hypouricemic activity in potassium oxonate-induced hyperuricemic Kunming mouse model assessed as decrease in serum XOD level at 1 mg/kg, IG pre-administered via gavage twice daily for 5 times followed by potassium oxonate injection for 1 hrs prior to last dose; type: functional, organism-based; conditions: time 5.0 day
[2] = Toxicity in Kunming mouse assessed as decrease in serum uric acid level at 1 mg/kg; type: organism-based; conditions: in vivo
[3] = species on record: Homo sapiens; assay: Inhibition of uricase (unknown origin) using uric acid as substrate at 112.5 mg/L preincubated with compounds for 15 mins followed by uric acid addition
[4] = tested on: Mus musculus; assay: (§1) Hypouricemic activity in potassium oxonate-induced hyperuricemic Kunming mouse model assessed as decrease in serum uric acid level at 5 mg/kg, IG pre-administered via gavage twice daily for 5 times followed by potassium oxonate injection for 1 hrs prior to last dose by phosphotungstic acid method; type: functional; conditions: for Activity: time 5.0 day
[5] = tested on: Rattus norvegicus; assay: (§2) Anti-hyperuricemic activity against potassium oxonate-induced hyperuricemic Sprague-Dawley rat model assessed as urinary creatinine level at 12.5 mg/kg, po pre-administered via gavage twice daily for 5 times followed by potassium oxonate injection for 1 hrs prior to last dose and measured after 3 hrs; type: functional; conditions: time 123 hrs
[6] = tested on: Rattus norvegicus; assay: (§3) Anti-hyperuricemic activity against potassium oxonate-induced hyperuricemic Sprague-Dawley rat model assessed as urinary urate at 12.5 mg/kg, po pre-administered via gavage twice daily for 5 times followed by potassium oxonate injection for 1 hrs prior to last dose and measured after 3 hrs; type: functional; conditions: time 123 hrs
[7] = tested on: Rattus norvegicus; assay: as §2, with “serum urea nitrogen” for “urinary creatinine”; type: functional; conditions: time 123 hrs
[8] = tested on: Rattus norvegicus; assay: Anti-hyperuricemic activity against potassium oxonate-induced hyperuricemic Sprague-Dawley rat model assessed as serum creatinine level at 12.5 mg/kg, po pre-administered via gavage twice daily for 5 times followed by potassium oxonate injection for 1 hrs prior to last dose and measured after 3 hrs; type: functional; conditions: time 123 hrs
[9] = tested on: Rattus norvegicus; assay: as §3, with “glomerular load of” for “urinary”, “urate measured per body surface area of 0.0311 m2” for “urate”; type: functional; conditions: time 123 hrs
[10] = tested on: Rattus norvegicus; assay: as §3, with “assessed as fractional excretion of urate at” for “assessed as urinary urate at”, “3 hrs relative to control” for “3 hrs”; type: functional; conditions: time 123 hrs
[11] = tested on: Rattus norvegicus; assay: as §3, with “excretion of” for “urinary”, “urate per volume of glomerular filtration measured per body surface area of 0.0311 m2” for “urate”; type: functional; conditions: time 123 hrs
[12] = tested on: Mus musculus; assay: Anti-hyperouricemic activity in uric acid-induced hyperuricemic Kunming mouse model assessed as decrease in serum uric acid level at 25 mg/kg, IG pre-administered with uric acid for 30 mins followed by compound treatment and measured after 2 hrs by phosphotungstic acid method; type: functional, organism-based
[13] = tested on: Rattus norvegicus; assay: Anti-hyperuricemic activity against potassium oxonate-induced hyperuricemic Sprague-Dawley rat model assessed as urinary urate level at 12.5 mg/kg, po pre-administered via gavage twice daily for 5 times followed by potassium oxonate injection for 1 hrs prior to last dose and measured after 3 hrs; type: functional; conditions: time 123 hrs
[14] = tested on: Rattus norvegicus; assay: Anti-hyperuricemic activity against potassium oxonate-induced hyperuricemic Sprague-Dawley rat model assessed as urine volume at 12.5 mg/kg, po pre-administered via gavage twice daily for 5 times followed by potassium oxonate injection for 1 hrs prior to last dose and measured after 3 hrs; type: functional; conditions: time 123 hrs
[15] = tested on: Rattus norvegicus; assay: as §2, with “clearance of” for “urinary”, “measured per body surface area of 0.0311 m2” for “level”; type: functional; conditions: time 123 hrs
[16] = tested on: Rattus norvegicus; assay: as §3, with “clearance of” for “urinary”, “urate measured per body surface area of 0.0311 m2” for “urate”; type: functional; conditions: time 123 hrs
[17] = tested on: Rattus norvegicus; assay: Anti-hyperuricemic activity against potassium oxonate-induced hyperuricemic Sprague-Dawley rat model assessed as serum urate level at 12.5 mg/kg, po pre-administered via gavage twice daily for 5 times followed by potassium oxonate injection for 1 hrs prior to last dose and measured after 3 hrs; type: functional; conditions: time 123 hrs
[18] = tested on: Mus musculus; assay: as §1, with “method relative to control” for “method”; type: functional; parameters: scale not given: the % may be the effect or the level left; conditions: time 5 day
[19] = target: Xanthine dehydrogenase/oxidase (Homo sapiens, UniProt P47989); assay: Inhibition of XOD (unknown origin) using xanthine as substrate assessed as inhibition of uric acid generation at 0.54 mg/L preincubated for 15 mins followed by xanthine addition and measured by spectrophotometric analysis relative to control
Chain of Xanthine dehydrogenase/oxidase (P47989 whole entry): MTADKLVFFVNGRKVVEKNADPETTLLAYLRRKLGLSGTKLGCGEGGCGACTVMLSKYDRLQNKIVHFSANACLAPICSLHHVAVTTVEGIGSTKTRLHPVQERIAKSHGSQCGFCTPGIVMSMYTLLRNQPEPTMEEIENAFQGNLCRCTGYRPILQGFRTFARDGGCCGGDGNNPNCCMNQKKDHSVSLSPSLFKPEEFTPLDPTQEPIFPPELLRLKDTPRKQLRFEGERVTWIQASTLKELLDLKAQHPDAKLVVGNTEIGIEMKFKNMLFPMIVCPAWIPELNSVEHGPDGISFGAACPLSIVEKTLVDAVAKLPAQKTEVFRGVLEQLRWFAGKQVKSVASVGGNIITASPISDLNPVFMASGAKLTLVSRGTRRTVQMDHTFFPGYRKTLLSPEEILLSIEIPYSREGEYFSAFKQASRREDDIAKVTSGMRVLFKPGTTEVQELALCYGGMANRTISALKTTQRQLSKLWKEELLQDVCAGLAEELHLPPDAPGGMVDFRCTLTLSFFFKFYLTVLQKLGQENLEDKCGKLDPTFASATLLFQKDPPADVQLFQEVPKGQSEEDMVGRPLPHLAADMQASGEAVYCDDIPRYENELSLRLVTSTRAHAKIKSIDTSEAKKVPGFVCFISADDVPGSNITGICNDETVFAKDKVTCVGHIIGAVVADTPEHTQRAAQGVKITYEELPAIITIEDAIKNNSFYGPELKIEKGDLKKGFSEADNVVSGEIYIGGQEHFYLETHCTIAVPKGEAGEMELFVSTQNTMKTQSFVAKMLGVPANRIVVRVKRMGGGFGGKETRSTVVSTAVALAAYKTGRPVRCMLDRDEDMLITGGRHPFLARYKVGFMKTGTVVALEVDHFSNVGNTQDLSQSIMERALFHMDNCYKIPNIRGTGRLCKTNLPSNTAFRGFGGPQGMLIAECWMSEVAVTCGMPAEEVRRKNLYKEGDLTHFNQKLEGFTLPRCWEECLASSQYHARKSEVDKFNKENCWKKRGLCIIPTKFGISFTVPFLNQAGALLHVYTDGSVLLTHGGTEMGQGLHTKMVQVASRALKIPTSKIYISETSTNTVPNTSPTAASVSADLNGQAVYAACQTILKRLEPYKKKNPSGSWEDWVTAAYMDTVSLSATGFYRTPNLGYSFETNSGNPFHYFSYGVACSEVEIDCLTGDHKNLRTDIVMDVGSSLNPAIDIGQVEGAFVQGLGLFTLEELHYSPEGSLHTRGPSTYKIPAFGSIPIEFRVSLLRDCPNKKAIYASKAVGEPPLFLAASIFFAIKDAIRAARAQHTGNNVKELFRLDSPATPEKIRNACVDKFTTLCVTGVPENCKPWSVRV

[20] = tested on: Mus musculus; assay: Hypouricemic activity in potassium oxonate-induced hyperuricemic Kunming mouse model assessed as serum urate level at 10 mg/kg, IG pre-administered via gavage twice daily for 5 times followed by potassium oxonate injection for 1 hrs prior to last dose by phosphotungstic acid method; type: functional; conditions: time 5 day
[21] = tested on: Mus musculus; assay: Hypouricemic activity in potassium oxonate-induced hyperuricemic Kunming mouse model assessed as serum XDH level at 10 mg/kg, IG pre-administered via gavage twice daily for 5 times followed by potassium oxonate injection for 1 hrs prior to last dose; type: functional; conditions: time 5 day
[22] = tested on: Mus musculus; assay: Hypouricemic activity in potassium oxonate-induced hyperuricemic Kunming mouse model assessed as serum XOD level at 10 mg/kg, IG pre-administered via gavage twice daily for 5 times followed by potassium oxonate injection for 1 hrs prior to last dose; type: functional; conditions: time 5 day

In the case of `Cc1nc(-c2ccc(OCC(C)C)c(C#N)c2)sc1C(=O)O` [FEBUXOSTAT], the Activity [1] is reported as “Active” and the Activity [2] is reported as “Toxic”.

Work on `O=C(O)c1nc(=O)[nH]c(=O)[nH]1` yielded an inhibition [3] of 96.5%.

In the case of `COc1c(O)cc2oc3cc4c(c(O)c3c(=O)c2c1CC=C(C)C)C=CC(C)(C)O4`, the Activity [4] is reported as “inactive”.

In the case of `CC(C)=CCc1c(O)cc2oc3cc(O)c(O)c(CC=C(C)C)c3c(=O)c2c1O`, the Activity [4] is reported as “inactive”.

With `CCc1oc2ccccc2c1C(=O)c1cc(Br)c(O)c(Br)c1` [BENZBROMARONE] the Activity [5] was 1 mmol/L, the Activity [6] was 392 µmol and the Activity [7] was 9.7 mmol/L. For the same compound, the Activity [8] was 56.1 µmol/L, the Activity [9] was 3.8 µmol/min and the Activity [10] was 66%. The Activity [11] was 5.3 µmol/L, the Activity [12] was “Active” and the Activity [13] was 2.7 mmol/L. For the same compound, the Activity [14] was 4.6 mL, the Activity [15] was 14.6 mL/min and the Activity [16] was 8.4 mL/min. For the same compound, the Activity [17] was 258 µmol/L.

With `Oc1ncnc2[nH]ncc12` [ALLOPURINOL] the “serum uric acid level” value ([4]; time 5 day) was 117.86 µmol/L, the Activity [18] was 64% and the inhibition at 0.54 µg/mL [19] was 42.7%. The Activity [20] was 180.26 µmol/L, the Activity [21] was 2.59 U/L and the Activity [22] was 11.46 U/L.
